Results published in patent publication US7008953B2, “3, 5 Disubstituted indazole compounds, pharmaceutical compositions, and methods for mediating or inhibiting cell proliferation” (Agouron Pharmaceuticals, Inc., priority 2003, dated 2006).
Blank lines part the entries; values can stand above or below the compound they belong to.

Legend:
Assay type in all cases: biochemical
[1] = biological target: MAPK kinase (MKK1, also called MEK) (Homo sapiens, UniProt Q02750); assay: Panel of protein kinases: MKK1; details: method of Davies et al.
Procedure: (§1) The compounds of the present invention were screened against a large panel of protein kinase to determine inhibition activity for CDK as against a variety of protein kinases. The assay was conducted using methods and materials described by Davies, S et al. Specificity and Mechanism of Action of Some Commonly Used Protein Kinase Inhibitors, Biochem J. 351, 95–105 (2000), the contents of which are herein incorporated by reference. The compounds were screened against a panel of protein kinases which include AMP-activiated protein kinase (AMPK), checkpoint kinase (CHK1), casein kinases 1 and 2 (CK1 and CK2), cytoplasmic tyrosine kinase (CSK), dual serine/threonine/tyrosine kinase (DYRK1A), glycogen synthase kinase 3 (GSK3B), c-Jun N-terminal kinase (JNK), lymphocyte kinase (LCK), mitogen-activated protein kinases 2, K-1a, K2 (MAPK2, MAPKAP-K1a, and MAPKAP-K2), MAPK kinase (MKK1, also called MEK), mitogen and stress-activated protein kinase 1 (MSK1), never-in-mitosis kinase 6 (NEK6), p70 ribosomal protein S6 kinase (P70s6K1), 3-phosphoinositide-dependent protein kinase 1 (PDK1), phosphorylase kinase (PHK), protein kinase A (PKA), protein kinase B (PKB, also called Akt), protein kinase C (PKCa), p38-regulated/activated kinase (PRAK), Rho-dependent protein kinase (ROCK-II), stress-activated protein kinase 2a, 2b, 3 and 4 (SAPK-2A or p38, SAPK-2b or p38β2, SAPK3 or p38γ, SAPK4 or p38δ, respectively), and serum- and glucocorticoid-induced kinase (SGK). Compound activity was grouped into categories of weak (<50%), moderate (50–75%) and strong inhibition (>75%).

[2] = test system: AMP-activiated protein kinase (AMPK); assay: Panel of protein kinases: AMPK; details: method of Davies et al.
Procedure: as §1

[3] = test system: Rho-dependent protein kinase (ROCK-II); assay: Panel of protein kinases: ROCK-II; details: method of Davies et al.
Procedure: as §1

[4] = biological target: protein kinase A (PKA) (Bos taurus, UniProt P00517); assay: Panel of protein kinases: PKA; details: method of Davies et al.
Procedure: as §1

[5] = test system: casein kinase 2 (CK2); assay: Panel of protein kinases: CK2; details: method of Davies et al.
Procedure: as §1

[6] = test system: p70 ribosomal protein S6 kinase (P70s6K1); assay: Panel of protein kinases: P70s6K1; details: method of Davies et al.
Procedure: as §1

[7] = test system: casein kinase 1 (CK1); assay: Panel of protein kinases: CK1; details: method of Davies et al.
Procedure: as §1

[8] = biological target: T1, stress-activated protein kinase 4 (SAPK4 or p38δ) (Homo sapiens, UniProt O15264); assay: Panel of protein kinases: SAPK4; details: method of Davies et al.
T1 sequence (O15264 1-365): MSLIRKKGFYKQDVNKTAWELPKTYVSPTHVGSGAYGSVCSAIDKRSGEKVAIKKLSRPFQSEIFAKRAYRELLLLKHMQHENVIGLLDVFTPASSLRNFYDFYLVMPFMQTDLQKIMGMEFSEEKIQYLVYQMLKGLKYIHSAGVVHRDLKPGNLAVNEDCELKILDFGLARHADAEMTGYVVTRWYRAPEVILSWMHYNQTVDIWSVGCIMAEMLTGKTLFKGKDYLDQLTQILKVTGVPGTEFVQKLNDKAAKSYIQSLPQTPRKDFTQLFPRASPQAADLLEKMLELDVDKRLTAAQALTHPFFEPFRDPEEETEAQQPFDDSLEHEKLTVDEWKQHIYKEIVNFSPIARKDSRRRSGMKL
Procedure: as §1

[9] = biological target: T2, CDK2/Cyclin A (Homo sapiens, UniProt P24941); assay: Inhibition of CDK2/Cyclin A retinoblastoma kinase activity (apparent Ki); details: Rb fragment substrate, 25 μM ATP
T2 construct: made in house; host or cells: CDK2: insect cells (baculovirus); cyclin A: E. coli
Procedure: Cyclin-dependent kinase activity was measured by quantifying the enzyme-catalyzed, time-dependent incorporation of radioactive phosphate from [^32P]ATP or [^33P]ATP into a protein substrate. Unless noted otherwise, assays were performed in 96-well plates in a total volume of 50 μL, in the presence of 10 mM HEPES (N-[2-hydroxyethyl]piperazine-N′-[2-ethanesulfonic acid]) (pH 7.4), 10 mM MgCl2, 25 μM adenosine triphosphate (ATP), 1 mg/mL ovalbumin, 5 μg/mL leupeptin, 1 mM dithiothreitol, 10 mM beta-glycerophosphate, 0.1 mM sodium vanadate, 1 mM sodium fluoride, 2.5 mM ethylene glycol-bis(β-aminoethyl ethKer)-N,N,N′N′-tetraacetic acid (EGTA), 2% (v/v) dimethylsulfoxide, and 0.03–0.4 μCi [^32/33P]ATP per reaction. Reactions were initiated with enzyme, incubated at 30° C., and terminated after 20 minutes by the addition of ethylenediaminetetraacetic acid (EDTA) to 250 mM. The phosphorylated substrate was then captured on a nitrocellulose or phosphocellulose membrane using a 96-well filtration manifold, and unincorporated radioactivity was removed by repeated washing with 0.85% phosphoric acid. Radioactivity was quantified by exposing the dried membranes to a phosphorimager.
Apparent Ki values were measured by assaying enzyme activity in the presence of different inhibitor compound concentrations and subtracting the background radioactivity measured in the absence of enzyme. Inhibition data were fit to an equation for competitive inhibition using Kaleidagraph (Synergy Software), or were fit to an equation for competitive tight-binding inhibition using the software KineTic (BioKin, Ltd.).
CDK2 was purified using published methodology (Rosenblatt et al., “Purification and Crystallization of Human Cyclin-dependent Kinase 2,” J. Mol. Biol., vol. 230, 1993, pp. 1317–1319) from insect cells that had been infected with a baculovirus expression vector. […] A complex of CDK2 and proteolyzed cyclin A was prepared and purified by gel filtration. The substrate for this assay was the same Rb substrate fragment used for the CDK4 assays, and the methodology of the CDK2/cyclin A and the CDK4/cyclin D3 assays was essentially the same, except that CDK2 was present at 150 nM or 5 nM. Ki values were measured as described above.

MAPK kinase (MKK1, also called MEK), sequence (Q02750 whole entry): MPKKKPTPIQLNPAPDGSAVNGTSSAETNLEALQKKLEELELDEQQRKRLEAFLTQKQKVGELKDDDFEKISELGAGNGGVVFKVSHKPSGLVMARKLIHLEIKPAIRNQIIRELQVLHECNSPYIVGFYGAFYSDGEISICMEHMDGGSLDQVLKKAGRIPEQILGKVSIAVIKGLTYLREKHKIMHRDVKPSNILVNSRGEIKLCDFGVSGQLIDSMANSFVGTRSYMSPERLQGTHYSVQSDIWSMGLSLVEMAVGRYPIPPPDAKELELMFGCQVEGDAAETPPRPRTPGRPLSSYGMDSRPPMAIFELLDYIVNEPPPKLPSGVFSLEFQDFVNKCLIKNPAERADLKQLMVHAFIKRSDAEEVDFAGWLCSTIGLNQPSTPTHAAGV

SMILES: CCNCc1cncc(-c2ccc3[nH]nc(-c4nc5ccccc5[nH]4)c3c2)c1C [A]
- Kinase MKK1 inhibition [1]: ++ (Strong inhibition >75%)
- Kinase AMPK inhibition [2]: ++ (Strong inhibition >75%)
- Kinase ROCK-II inhibition [3]: ++ (Strong inhibition >75%)
- Kinase PKA inhibition [4]: ++ (Strong inhibition >75%)
- Kinase CK2 inhibition [5]: − (Weak inhibition <50%)
- Kinase P70s6K1 inhibition [6]: + (Moderate inhibition 50–75%)
- Kinase CK1 inhibition [7]: − (Weak inhibition <50%)
- Kinase SAPK4 inhibition [8]: − (Weak inhibition <50%)
- Ki [9]: 0.52 nM

SMILES: CCNCc1cncc(-c2ccc3[nH]nc(-c4nc5c(C(=O)NC)cccc5[nH]4)c3c2)c1C [B]
- Kinase MKK1 inhibition [1]: + (Moderate inhibition 50–75%)
- Kinase AMPK inhibition [2]: ++ (Strong inhibition >75%)
- Kinase ROCK-II inhibition [3]: + (Moderate inhibition 50–75%)
- Kinase PKA inhibition [4]: ++ (Strong inhibition >75%)
- Kinase CK2 inhibition [5]: − (Weak inhibition <50%)
- Kinase P70s6K1 inhibition [6]: + (Moderate inhibition 50–75%)
- Kinase CK1 inhibition [7]: − (Weak inhibition <50%)
- Kinase SAPK4 inhibition [8]: − (Weak inhibition <50%)
- Ki [9]: 0.25 nM

SMILES: CCNCc1cncc(-c2ccc3[nH]nc(-c4nc5c(SC)cccc5[nH]4)c3c2)c1C [C]
- Kinase MKK1 inhibition [1]: + (Moderate inhibition 50–75%)
- Kinase AMPK inhibition [2]: ++ (Strong inhibition >75%)
- Kinase ROCK-II inhibition [3]: + (Moderate inhibition 50–75%)
- Kinase PKA inhibition [4]: + (Moderate inhibition 50–75%)
- Kinase CK2 inhibition [5]: − (Weak inhibition <50%)
- Kinase P70s6K1 inhibition [6]: − (Weak inhibition <50%)
- Kinase CK1 inhibition [7]: − (Weak inhibition <50%)
- Kinase SAPK4 inhibition [8]: − (Weak inhibition <50%)
- Ki [9]: 0.8 nM

SMILES: CCNCc1cncc(-c2ccc3[nH]nc(-c4nc5c(NC(C)=O)cccc5[nH]4)c3c2)c1C [D]
- Kinase MKK1 inhibition [1]: + (Moderate inhibition 50–75%)
- Kinase AMPK inhibition [2]: ++ (Strong inhibition >75%)
- Kinase ROCK-II inhibition [3]: − (Weak inhibition <50%)
- Kinase PKA inhibition [4]: − (Weak inhibition <50%)
- Kinase CK2 inhibition [5]: − (Weak inhibition <50%)
- Kinase P70s6K1 inhibition [6]: − (Weak inhibition <50%)
- Kinase CK1 inhibition [7]: − (Weak inhibition <50%)
- Kinase SAPK4 inhibition [8]: − (Weak inhibition <50%)
- Ki [9]: 2.4 nM

SMILES: CCNCc1cncc(-c2ccc3[nH]nc(-c4nc5c(F)cc(F)cc5[nH]4)c3c2)c1C [Example 1, {5-[3-(4,6-Difluoro-1H-benzoimidazol-2-yl)-1H-indazol-5-yl]-4-methyl-pyridin-3-ylmethyl}-ethyl-amine]
- Kinase MKK1 inhibition [1]: − (Weak inhibition <50%)
- Kinase AMPK inhibition [2]: ++ (Strong inhibition >75%)
- Kinase ROCK-II inhibition [3]: − (Weak inhibition <50%)
- Kinase PKA inhibition [4]: − (Weak inhibition <50%)
- Kinase CK2 inhibition [5]: − (Weak inhibition <50%)
- Kinase P70s6K1 inhibition [6]: − (Weak inhibition <50%)
- Kinase CK1 inhibition [7]: − (Weak inhibition <50%)
- Kinase SAPK4 inhibition [8]: − (Weak inhibition <50%)
- Ki [9]: 0.78 nM

- Kinase MKK1 inhibition [1]: − (Weak inhibition <50%)
- Kinase PKA inhibition [4]: − (Weak inhibition <50%)
- Kinase SAPK4 inhibition [8]: − (Weak inhibition <50%)
- Ki [9]: 0.47 nM
SMILES: CCNCc1cncc(-c2ccc3[nH]nc(-c4nc5cc(F)ccc5[nH]4)c3c2)c1C [Example 2, Ethyl-{5-[3-(5-fluoro-1H-benzoimidazol-2-yl)-1H-indazol-5-yl]-4-methyl-pyridin-3-ylmethyl}-amine]
